Assay results from patent US9975881B2, “Compound” (ASTRAZENECA AB, priority 2011, dated 2018).

Columns and labels:
[1] = Distribution coefficient at pH 7.4 (Log D7.4), 1-octanol/phosphate buffer; assay type: physicochemical; details: 1-octanol / 0.02 M phosphate buffer pH 7.4
Procedure: Measurement of Distribution Coefficient at pH 7.4 (Log D7.4)
Compounds of interest (1 mg) were dispensed into individual 1-mL polypropylene vials, held within a 96-well plate along with 1-octanol (700 μL), and presaturated with 0.02 M phosphate buffer (pH 7.4). The plate was then shaken overnight followed by centrifugation (800 g for 15 min) to sediment any undissolved solids. Up to 24 mixtures of 10 compounds (or less) were then prepared by pooling the 1-octanol solutions (100 μL) into a plate of 12-mL glass sample tubes. […] The pooling of compounds was performed robotically and controlled using automatically generated bespoke work lists. If a mixture contained less than 10 compounds, then 1-octanol (presaturated with 0.02 M phosphate buffer [pH 7.4]) was added to make up the total volume of the 1-octanol phase to 1 mL. 1-Octanol-saturated phosphate buffer (0.02 M, pH 7.4, 2 mL) was then added to each mixture before shaking (450 rpm for 30 min) and centrifugation (800 g for 15 min). The final 1-octanol and aqueous phases of each partition mixture were then robotically separated. […] Log D7.4 was calculated from the ratio of one of the 1-octanol relative concentrations to the interpolated aqueous relative concentration after correcting for the extent of dilution of both the 1-octanol and aqueous solutions.

[2] = test system: plasma proteins; test: Human plasma protein binding (hPPB), equilibrium dialysis; assay type: in vitro ADME; details: human plasma pH 7.4, 37° C., 18 hours, 10 μM
Procedure: Measurement of Human Plasma Protein Binding (hPPB)
The extent of binding of a drug to plasma proteins is a crucial factor in determining in vivo potency and pharmacokinetics. The method used for determining the extent of plasma protein binding involves equilibrium dialysis of the compound between plasma and buffer at 37° C. The concentrations of compound in the plasma and buffer are then determined using high pressure liquid chromatography (HPLC) with mass spectroscopy (MS) detection. The dialysis method involves the use of mixtures of up to 10 compounds simultaneously. At the concentrations used in the assay, there is no significant difference in the results when compounds are run singly or in mixtures.
Membranes (molecular weight cut-off 5000) were first prepared by soaking in the dialysis buffer for a minimum of 1 hour. […]
The samples and standards were then analysed using HPLC with MS detection, which allows deconvolution of the mixtures of compounds. […]
The chromatograms were processed using MassLynx software that automatically calculates a calibration curve for each compound in a mixture and then interpolates the concentrations of buffer and plasma samples. […] The percentage bound was calculated from the MassLynx data using the following equation: […]
The % free (100-% bound) for each compound was calculated from the concentration data, and then recorded.

SMILES: CC1CN(S(=O)(=O)Nc2cc(O[C@H](C)[C@@H](O)CO)nc(SCc3ccc(F)cc3)n2)C1 [Example 1, N-(6-((2R,3S)-3,4-Dihydroxybutan-2-yloxy)-2-(4-fluorobenzylthio)pyrimidin-4-yl)-3-methylazetidine-1-sulfonamide]
- logD [1]: 1.9
- human plasma protein binding (% free) [2]: 0.11 (±0.05) % free
